“And” between values parts separate entries of the source, which are not always exact repeats. Identical values can stand only once. Inconclusive results and toxic doses are left out. The calls were made as follows: active = survival T/C of 150% or more; inactive = T/C below 125% in these data.
Test system: BDF1 mice, P388 leukemia ip, median survival T/C
Assay: NCI In Vivo Anticancer Drug Screen. Data for tumor model P388 Leukemia (intraperitoneal) in B6D2F1 (BDF1) mice
Settings: endpoint: median survival time, higher = longer survival
How it was run: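 Compound-treated tumour-bearing mice were compared with vehicle-treated controls. Survival was recorded, and the value is the treated-group measurement divided by the control-group measurement (T/C).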

[1] = dose: 50.0 mg/kg/injection, schedule: Q04DX003 (ip), vehicle: Klucel (hydroxypropylcellulose) (HPC)
[2] = dose: 100.0 mg/kg/injection, schedule: Q04DX003 (ip), vehicle: Klucel (hydroxypropylcellulose) (HPC)
[3] = dose: 200.0 mg/kg/injection, schedule: Q04DX003 (ip), vehicle: Klucel (hydroxypropylcellulose) (HPC)
[4] = dose: 400.0 mg/kg/injection, schedule: Q04DX003 (ip), vehicle: Klucel (hydroxypropylcellulose) (HPC)
[5] = dose: 100.0 mg/kg/injection, schedule: Q01DX009 (ip), vehicle: saline with Tween-80
[6] = dose: 100.0 mg/kg/injection, schedule: Q01DX009 (ip), vehicle: saline
[7] = dose: 200.0 mg/kg/injection, schedule: Q01DX009 (ip), vehicle: saline
[8] = dose: 100.0 mg/kg/injection, schedule: Q04DX003 (ip), vehicle: saline with Tween-80
[9] = dose: 200.0 mg/kg/injection, schedule: Q04DX003 (ip), vehicle: saline with Tween-80
[10] = dose: 400.0 mg/kg/injection, schedule: Q04DX003 (ip), vehicle: saline with Tween-80

Measured: T/C

CC1(C)N=C(N)N=C(N)N1c1cccc(CCCCc2ccc(S(=O)(=O)F)cc2Cl)c1
inactive: dose: 3.13 mg/kg/injection, schedule: Q01DX009 (ip), vehicle: saline sonified 109 % of control | dose: 4.0 mg/kg/injection, schedule: Q01DX009 (ip), vehicle: saline 116 % of control | dose: 4.0 mg/kg/injection, schedule: Q04DX003 (ip), vehicle: saline with Tween-80 100 % of control | dose: 6.0 mg/kg/injection, schedule: Q04DX003 (ip), vehicle: saline with Tween-80 113 % of control | dose: 6.25 mg/kg/injection, schedule: Q01DX009 (ip), vehicle: saline 116 % of control | dose: 9.0 mg/kg/injection, schedule: Q04DX003 (ip), vehicle: saline with Tween-80 118 % of control | dose: 9.4 mg/kg/injection, schedule: Q01DX009 (ip), vehicle: saline 116 % of control

Cc1c(C(=O)O)nc(CC(O)C(Cl)(Cl)Cl)[nH]c1=O (stereo unspecified)
inactive: dose: 25.0 mg/kg/injection, schedule: Q04DX003 (ip), vehicle: Klucel (hydroxypropylcellulose) (HPC) 98 % of control | [1] 97 % of control | [2] 103 % of control | [3] 100 % of control | [4] 96 % of control

CC1(C)N=C(N)N=C(N)N1c1ccc(OCCOc2ccc(NC(=O)CBr)cc2)cc1
inactive: dose: 2.5 mg/kg/injection, schedule: Q01DX009 (ip), vehicle: saline with Tween-80 95 % of control | dose: 5.0 mg/kg/injection, schedule: Q01DX009 (ip), vehicle: saline with Tween-80 112 % of control | [7] 90 % of control
active: [5] 172 % of control | [6] 230 % of control | dose: 100.0 mg/kg/injection, schedule: Q04DX003 (ip), vehicle: saline sonified 165 % of control and 170 % of control | dose: 150.0 mg/kg/injection, schedule: Q01DX009 (ip), vehicle: saline with Tween-80 218 % of control | dose: 150.0 mg/kg/injection, schedule: Q04DX003 (ip), vehicle: saline sonified 165 % of control | dose: 200.0 mg/kg/injection, schedule: Q04DX003 (ip), vehicle: saline sonified 200 % of control | dose: 400.0 mg/kg/injection, schedule: Q04DX003 (ip), vehicle: saline sonified 245 % of control

CC1(C)O[C@@H]2C[C@H]3[C@@H]4CCC5=CC(=O)CC[C@]5(C)[C@@]4(F)[C@@H](O)C[C@]3(C)[C@]2(C(=O)CO)O1
inactive: [8] 108 % of control | [9] 108 % of control | [10] 100 % of control

CC(C)=CC(=O)OCC[N+](C)(C)C
inactive: dose: 12.5 mg/kg/injection, schedule: Q01DX009 (ip), vehicle: saline 97 % of control | dose: 25.0 mg/kg/injection, schedule: Q01DX009 (ip), vehicle: saline 90 % of control

CC(=O)/C=N/Nc1ccccc1
inactive: [1] 109 % of control | dose: 66.0 mg/kg/injection, schedule: Q04DX003 (ip), vehicle: Klucel (hydroxypropylcellulose) (HPC) 110 % of control | [2] 120 % of control | dose: 150.0 mg/kg/injection, schedule: Q04DX003 (ip), vehicle: Klucel (hydroxypropylcellulose) (HPC) 120 % of control | [3] 95 % of control

O=C1c2ccccc2C(=Cc2ccccc2)c2ccccc21
inactive: [5] 118 % of control | dose: 200.0 mg/kg/injection, schedule: Q01DX009 (ip), vehicle: saline with Tween-80 100 % of control | dose: 400.0 mg/kg/injection, schedule: Q01DX009 (ip), vehicle: saline with Tween-80 113 % of control

CCCCCCCCCCCCCCCCCC(=O)Oc1ccc(OCc2ccccc2)cc1
inactive: [2] 100 % of control | [3] 100 % of control | [4] 90 % of control

CCc1cc(CC)n2cnnc2n1
inactive: dose: 50.0 mg/kg/injection, schedule: Q01DX009 (ip), vehicle: saline 89 % of control | [6] 89 % of control

COc1cc2c(cc1OC)C1CNCC1C(c1cc(OC)c(OC)c(OC)c1)C2 (stereo unspecified)
inactive: dose: 12.5 mg/kg/injection, schedule: Q01DX009 (ip), vehicle: Klucel (hydroxypropylcellulose) (HPC) 105 % of control | dose: 25.0 mg/kg/injection, schedule: Q01DX009 (ip), vehicle: Klucel (hydroxypropylcellulose) (HPC) 100 % of control | dose: 50.0 mg/kg/injection, schedule: Q01DX009 (ip), vehicle: Klucel (hydroxypropylcellulose) (HPC) 100 % of control | dose: 100.0 mg/kg/injection, schedule: Q01DX009 (ip), vehicle: Klucel (hydroxypropylcellulose) (HPC) 90 % of control

O=[N+]([O-])c1ccccc1C=Nc1ccccc1
inactive: dose: 100.0 mg/kg/injection, schedule: Q01DX001 (ip), vehicle: Klucel (hydroxypropylcellulose) (HPC) 100 % of control | [6] 105 % of control | [2] 100 % of control | dose: 200.0 mg/kg/injection, schedule: Q01DX001 (ip), vehicle: Klucel (hydroxypropylcellulose) (HPC) 104 % of control | [7] 90 % of control | [3] 110 % of control | dose: 400.0 mg/kg/injection, schedule: Q01DX001 (ip), vehicle: Klucel (hydroxypropylcellulose) (HPC) 95 % of control | dose: 400.0 mg/kg/injection, schedule: Q01DX009 (ip), vehicle: saline 90 % of control | [4] 100 % of control

Nc1nc(=O)c2ccccc2s1
inactive: [8] 105 % of control | [9] 111 % of control | [10] 100 % of control

Reference: PubChem BioAssay AID328 (DTP/NCI, 2004)
